Experimental data published in patent US10398706B2, “Heteroaryldiazepine derivatives as RSV inhibitors” (Enanta Pharmaceuticals, Inc., priority 2017, dated 2019).

What follows are compounds tested on Human RSV-A (“Long” strain) (assay: RSV-A in vitro cytoprotection assay in HEp-2 cells (ATPlite readout)). Details: HEp-2 cells, 4-day incubation, ATPlite cell viability; read-out: Human RSV-A (“Long” strain) EC50.
Type: cell-based, Human respiratory syncytial virus
From the text: RSV is a single stranded negative sense RNA virus that causes respiratory tract infections which can be dangerous to infants, the elderly, and immunosuppressed individuals. Currently there is no vaccine, and therapeutic options are both costly and of limited effectiveness. These approved treatments are Ribavirin, and Palivizumab/Synagis (a monoclonal antibody). RSV has two genotypes, A and B, which differ primarily in the structure of the virus' surface “G” attachment protein. Our current primary screen focusses on RSV-A and uses an in vitro cytoprotection assay where compounds are added in 2-fold dilutions to cells which are then subjected to fully replicative viral particles. Cell viability is measured several days later along with separate measurements of compound cytotoxicity. This report focuses on the results of our most recent screening of compounds.
HEp-2 cells, (originally derived from tumors grown in irradiated-cortisonised weanling rats that had been injected with epidermoid carcinoma tissue from a person's larynx, but later found to be indistinguishable from HeLa cells by PCR DNA analysis), were used for the culturing of genotype A, “Long” strain RSV. Flasks were inoculated with RSV and viral stocks were collected once cytopathic effect (CPE) was greater than 90%. Viral stocks in 25% sucrose media were snap frozen using liquid nitrogen to increase viral stability. Viral stock titers were quantified by tissue culture infectious dose 50% (TCID50) using 8,000 cells per well and 3-fold viral dilutions across a 96-well plate, cultured for 4 days.
Following extensive parameter testing, the final assay is run as follows: HEp-2 cells are seeded into the inner 60 wells of a 96-well plate at 8,000 cells per well in a volume of 50 μL using Growth Media (DMEM without phenol red, 1% L-Glut, 1% Penn/Strep, 1% nonessential amino acids, 10% FBS). 2-fold serial dilutions of control and test compounds are added to the wells in duplicate in a total volume of 25 μL. Viral stock is then added to the wells in a volume of 25 μL, bringing the total volume of each well to 100 μL. Each 96-well plate has a control column of 6 wells with cells and virus but no compound (negative control, max CPE), a column with cells but no compound or virus (positive control, minimum CPE), and a column with no cells or virus or compound (background plate/reagent control). The control wells with cells but no virus are given an additional 25 uL of growth media containing an equal quantity of sucrose as those wells receiving the viral stock in order to keep consistent in media and volume conditions. The outer wells of the plate are filled with 125 μL of growth media to act as a thermal and evaporative moat around the test wells. Following a 4-day incubation period, the plates are read using ATPlite (50 uL added per well), which quantifies the amount of ATP (a measure of cell health) present in each well. Assay plates are read using the Envision luminometer. […] EC50 ranges are as follows: A<0.4 μM; B 0.4-0.8 μM; C>0.8 μM.

Row | Structure (SMILES) | EC50
1 | Cc1sc2c(c1C)C(c1ccccc1)=N[C@H](Nc1nnc(-c3ncc(C(F)(F)F)cc3N3CCOCC3)o1)C(=O)N2 [Example 8] | 0.4 to 0.8 µM
2 | Cc1cc2c(s1)NC(=O)[C@@H](Nc1nnc(-c3ncc(C(F)(F)F)cc3N3CCOCC3)o1)N=C2c1ccccc1 [Example 6] | < 0.4 µM

Same assay, conditions: human respiratory syncytial virus, HEp-2, 96 h, read-out: Human RSV-A (“Long” strain) EC50

Row | Structure (SMILES) | EC50
3 | O=C1Nc2ccsc2C(c2ccccc2)=NC1Nc1nnc(-c2ncc(C(F)(F)F)cc2N2CCOCC2)o1 (stereo not shown) [Example 4] | 0.4 to 0.8 µM
4 | O=C1Nc2cnccc2C(c2ccccc2)=NC1Nc1nnc(-c2ccc(F)cc2)o1 (stereo not shown) [Example 3] | > 0.8 µM
5 | O=C1Nc2ncccc2C(c2ccccc2)=NC1Nc1nnc(-c2ccc(F)cc2)o1 (stereo not shown) [Example 2] | > 0.8 µM
6 | O=C1Nc2sccc2C(c2ccccc2)=NC1Nc1nnc(-c2ncc(C(F)(F)F)cc2N2CCOCC2)o1 (stereo not shown) [Example 5] | 0.4 to 0.8 µM
7 | O=C1Nc2cccnc2C(c2ccccc2)=NC1Nc1nnc(-c2ccccc2)o1 (stereo not shown) [Example 1] | > 0.8 µM
